# Assays:
# [1] = test system: E. coli; experiment: MIC agar dilution, aerobic and facultative bacteria; type: cell-based
# [2] = test system: Bacteriodes fragilis; experiment: MIC agar dilution, anaerobic bacteria; type: cell-based
# [3] = test system: B. vulgatus; experiment: MIC agar dilution, anaerobic bacteria; type: cell-based
# [4] = test system: B. disiens; experiment: MIC agar dilution, anaerobic bacteria; type: cell-based; settings: Culture # 1763
# [5] = test system: B. thetaiotaomicron; experiment: MIC agar dilution, anaerobic bacteria; type: cell-based
# [6] = test system: B. loescheii; experiment: MIC agar dilution, anaerobic bacteria; type: cell-based; settings: Culture # 1767
# [7] = test system: B. bivius; experiment: MIC agar dilution, anaerobic bacteria; type: cell-based; settings: Culture # 2483
# [8] = test system: Fusobacterium nucleatum; experiment: MIC agar dilution, anaerobic bacteria; type: cell-based; settings: Culture # 2478
# [9] = test system: Fusobacterium species; experiment: MIC agar dilution, anaerobic bacteria; type: cell-based; settings: Culture # 1770
# [10] = test system: Veillonella parvula; experiment: MIC agar dilution, anaerobic bacteria; type: cell-based; settings: Culture # 2479
# [11] = test system: Propionibacterium acnes; experiment: MIC agar dilution, anaerobic bacteria; type: cell-based; settings: Culture # 1775
# [12] = test system: Peptostreptococcus asaccharolyticus; experiment: MIC agar dilution, anaerobic bacteria; type: cell-based; settings: Culture # 1777
# [13] = test system: P. magnus; experiment: MIC agar dilution, anaerobic bacteria; type: cell-based; settings: Culture # 1778
# [14] = test system: P. species; experiment: MIC agar dilution, anaerobic bacteria; type: cell-based; settings: Culture # 1776
# [15] = test system: P. anaerobius; experiment: MIC agar dilution, anaerobic bacteria; type: cell-based; settings: Culture # 1780
# [16] = test system: Clostridium perfringens; experiment: microbe, parasite or virus in culture; type: cell-based
# [17] = test system: C. ramosum; experiment: MIC agar dilution, anaerobic bacteria; type: cell-based; settings: Culture # 2482
# [18] = test system: C. difficile; experiment: MIC agar dilution, anaerobic bacteria; type: cell-based
# [19] = test system: Staphylococcus aureus; experiment: MIC agar dilution, aerobic and facultative bacteria
# [20] = test system: S. epidermidis; experiment: as above; settings: Culture # 1666
# [21] = test system: Enterococcus faecium; experiment: as above; settings: Culture # 1668
# [22] = test system: Streptococcus bovis; experiment: as above; settings: Culture # 1699
# [23] = test system: Streptococcus agalactiae; experiment: as above; settings: Culture # 1670
# [24] = test system: S. pyogenes; experiment: as above
# [25] = test system: Micrococcus luteus; experiment: as above
# [26] = test system: Enterobacter aerogenes; experiment: as above; settings: Culture # 1677
# [27] = test system: Klebsiella pneumoniae; experiment: as above; settings: Culture # 2518
# [28] = test system: Providencia stuartii; experiment: as above; settings: Culture # 1831
# [29] = test system: Pseudomonas aeruginosa; experiment: as above
# [30] = test system: P. cepacia; experiment: as above; settings: Culture # 1684
# [31] = test system: Acinetobacter calcoaceticus; experiment: as above; settings: Culture # 1845
# [32] = test system: Candida albicans; experiment: as above; settings: Culture # 3622
# [33] = test system: Mycobacterium smegmatis; experiment: as above; settings: Culture # 5171
# [34] = test system: Nocardia asteroides; experiment: as above; settings: Culture # 5173
compound,measurement,setting,value
"CCc1c(Cl)c(O)c(Cl)c(O)c1C(=O)O[C@H]1[C@H](O)[C@H](OC)[C@H](OC/C2=C\C=C\C[C@H](O)/C(C)=C/[C@H](CC)[C@@H](O[C@@H]3OC(C)(C)[C@@H](OC(=O)C(C)C)[C@H](O)[C@@H]3O)/C(C)=C/C(C)=C/C[C@@H]([C@@H](C)O)OC2=O)O[C@@H]1C [Tiacumicin B, tiacumicin B]",MIC,"[1]; DC-2, Culture # 1674",> 100 µg/mL
same,MIC,"[1]; H560, Culture # 1675",> 100 µg/mL
same,MIC,"[1]; Juhl, Culture # 1673",> 100 µg/mL
same,MIC,"[1]; KNK437, Culture # 1676",> 100 µg/mL
same,MIC,"[1]; SS, Culture # 2489",> 100 µg/mL
same,MIC,"[2]; Culture # 1756, Wilkins-Chalgren agar, 37° C., 48 hours",> 128 µg/mL
same,MIC,[2]; Culture # 1757,> 128 µg/mL
same,MIC,[2]; Culture # 1758,> 128 µg/mL
same,MIC,[2]; Culture # 1999,> 128 µg/mL
same,MIC,[3]; Culture # 1762,> 128 µg/mL
same,MIC,[3]; Culture # 2481,> 128 µg/mL
same,MIC,[4],32 µg/mL
same,MIC,[5]; Culture # 1764,> 128 µg/mL
same,MIC,[5]; Culture # 1765,> 128 µg/mL
same,MIC,[5]; Culture # 1766,> 128 µg/mL
same,MIC,[6],64 µg/mL
same,MIC,[7],128 µg/mL
same,MIC,[8],> 128 µg/mL
same,MIC,[9],> 128 µg/mL
same,MIC,[10],64 µg/mL
same,MIC,[11],4 µg/mL
same,MIC,[12],1 µg/mL
same,MIC,[13],0.5 µg/mL
same,MIC,[14],32 µg/mL
same,MIC,[15],0.008 µg/mL
same,MIC,[16]; Culture # 1771,0.008 µg/mL
same,MIC,[16]; Culture # 1772,0.03 µg/mL
same,MIC,[16]; Culture # 1773,0.008 µg/mL
same,MIC,[17],> 128 µg/mL
same,MIC,[18]; Culture # 1496,0.06 µg/mL
same,MIC,[18]; Culture # 1497,0.06 µg/mL
same,MIC,[18]; Culture # 1774,0.03 µg/mL
same,MIC,[18]; Culture # 2025,0.06 µg/mL
same,MIC,[18]; Culture # 2480,0.06 µg/mL
same,MIC,[18]; Culture # 2528,0.06 µg/mL
same,MIC,[18]; Culture # 2529,0.06 µg/mL
same,MIC,"[19]; Culture # 1662, brain heart infusion agar, 37° C., 20 hours",6.2 µg/mL
same,MIC,[19]; Culture # 1664,6.2 µg/mL
same,MIC,[19]; Culture # 1690,12.5 µg/mL
same,MIC,[19]; Culture # 2124,6.2 µg/mL
same,MIC,[19]; Culture # 2130,12.5 µg/mL
same,MIC,[19]; Culture # 2498,6.2 µg/mL
same,MIC,"[19]; cipro res., Culture # 3384",12.5 µg/mL
same,MIC,[20],3.1 µg/mL
same,MIC,[21],6.2 µg/mL
same,MIC,[22],25 µg/mL
same,MIC,[23],12.5 µg/mL
same,MIC,[24]; Culture # 1671,25 µg/mL
same,MIC,"[24]; const., Culture # 1672",3.1 µg/mL
same,MIC,"[24]; inducible, Culture # 2548",6.2 µg/mL
same,MIC,[25]; Culture # 2493,0.1 µg/mL
same,MIC,[25]; Culture # 2517,0.2 µg/mL
same,MIC,[26],> 100 µg/mL
same,MIC,[27],> 100 µg/mL
same,MIC,[28],> 100 µg/mL
same,MIC,[29]; Culture # 1679,> 100 µg/mL
same,MIC,[29]; Culture # 1680,> 100 µg/mL
same,MIC,[29]; Culture # 1681,> 100 µg/mL
same,MIC,[29]; Culture # 1682,12.5 µg/mL
same,MIC,"[29]; cipro R, Culture # 1919",> 100 µg/mL
same,MIC,"[29]; cipro R, Culture # 1920",> 100 µg/mL
same,MIC,[30],> 100 µg/mL
same,MIC,[31],> 100 µg/mL
same,MIC,[32],> 100 µg/mL
same,MIC,[33],12.5 µg/mL
same,MIC,[34],0.39 µg/mL

# — patent US5583115A, “Dialkyltiacumicin compounds” (Abbott Laboratories, priority 1995, dated 1996)
